# Molecular target: T1, human GnRH receptor (Homo sapiens, UniProt P30968)
# T1 construct: host or cells: CHO cells stably expressing human GnRH receptor (line established by Prof. Thomas Gudermann)
# T1 sequence (P30968 1-328): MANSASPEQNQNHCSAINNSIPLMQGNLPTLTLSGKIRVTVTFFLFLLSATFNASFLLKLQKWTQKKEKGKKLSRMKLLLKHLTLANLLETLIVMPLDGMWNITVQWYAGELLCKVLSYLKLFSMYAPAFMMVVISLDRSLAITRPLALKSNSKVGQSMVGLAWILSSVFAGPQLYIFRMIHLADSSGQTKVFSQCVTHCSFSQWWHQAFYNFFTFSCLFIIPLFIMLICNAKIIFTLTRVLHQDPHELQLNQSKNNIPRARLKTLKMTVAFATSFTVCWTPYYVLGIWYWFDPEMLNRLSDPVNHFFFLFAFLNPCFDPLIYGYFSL
# Assay: IP-One HTRF assay with buserelin stimulation
# Format: cell-based
# Conditions: CHO cells stably expressing human GnRH receptor; buserelin at EC80; read-out: Potency in IP-One HTRF assay with buserelin (at EC80) stimulation, given as IC50
# Text: By using homogenous time-resolved fluorescence resonance energy transfer (HTRF), the generation of one component of the GnRH-R signalling cascade can be measured. After stimulation of CHO cells stably expressing human GnRH receptor (established by Prof. Thomas Gudermann, currently University of Marburg, Germany; supplied as frozen cell aliquots by Cell Culture Services, Hamburg, Germany) with the EC80 of the GnRH agonist buserelin, Gq protein-coupled receptor signalling cascade is activated resulting in PLC-dependent cleavage of PIP2 to Inositol-1,4,5-triphosphate (IP3) and Diacylglycerol. The second messenger IP3 is degraded intracellularly to myo-inositol. Inhibition of the final degradation step from Inositol-1-phosphate (IP1) to myo-inositol by addition of lithium chloride leads to accumulation of IP1 in the cells. In cell lysates, IP1 can be detected via an antibody-based HTRF detection technology, where IP1 can displace the FRET acceptor IP1-d2 from binding by Terbium-labelled anti-IP1 antibody as donor resulting in a signal decrease. Compounds were tested for their capability of inhibiting GnRH-R activation by buserelin. For all IP-One HTRF® assays reagents of Cisbio Bioassays (IP-One Tb Jumbo kit, #62IPAPEJ; Cisbio Bioassays, Bagnols sur Cèze Cedex, France) were used.
# For the assay, frozen cell aliquots were thawed and a cell suspension (3.33×10^6 cells/mL) containing IP1-d2 (dilution 1:40) was prepared and incubated at 37° C. After 1 h 3 μl of the cell suspension were added to 50 nl of a 100-fold concentrated solution of the test compound in DMSO pre-dispensed in a well of a white low-volume 384-well microtiter plate (Greiner Bio-One, Frickenhausen, Germany). […] Plates were incubated for 1 h at 37° C. and 5% carbon dioxide before the cells were lysed by adding 3 μl Terbium-labelled anti-IP1 antibody (1:40) diluted in Conjugate & Lysis buffer as supplied with the kit. After an incubation for 1 h at 22° C. to enable complete cell lysis and antibody binding to free IP1 or IP1-d2, plates were measured in an HTRF reader, e.g. a RUBYstar, PHERAstar (both BMG Labtechnologies, Offenburg, Germany) or a Viewlux (PerkinElmer LAS, Rodgau-Jügesheim, Germany).
# From the fluorescence emissions at 665 nm (FRET) and at 620 nm (background signal of Terbium-antibody), the ratio (emission at 665 nm divided by emission at 620 nm) was calculated and the data were normalized (reaction without test compound=0% inhibition; all other assay components except agonist=100% inhibition). On the same microtiter plate, compounds were tested at 10 different concentrations in the range of 20 μM to 1 nM (20 μM, 6.7 μM, 2.2 μM, 0.74 μM, 0.25 μM, 82 nM, 27 nM, 9.2 nM, 3.1 nM and 1 nM; dilution series prepared before the assay at the level of the 100-fold conc. stock solutions by serial 1:3 dilutions in 100% DMSO) in duplicate values for each concentration. By using an in-house software, the IC50 values were calculated by a 4 parameter fit.
# Within the meaning of the present invention the antagonist activity is reflected by the ability of a compound of the invention to antagonize human GnRH receptor stimulation in IP-One HTRF® assay at least three times the standard deviation over the background level.
row,Structure (SMILES),IC50
1,"O=C(NCc1ncc(C(F)(F)F)cc1Cl)c1ccc2c(c1)C1(CC[S+]([O-])CC1)C(C1CC1)N2S(=O)(=O)c1ccc(F)cc1 (mixture of isomers) [Example 2, N-{[3-chloro-5-(trifluoromethyl)pyridin-2-yl]methyl}-2-cyclopropyl-1-[(4-fluorophenyl)sulfonyl]-1,2,2′,3′,5′,6′-hexahydrospiro[indole-3,4′-thiopyran]-5-carboxamide 1′-oxide]",0.027 µM
2,"O=C(NCc1ncc(C(F)(F)F)cc1F)c1ccc2c(c1)C1(CCS(=O)(=O)CC1)C(C1CC1)N2S(=O)(=O)c1ccc(F)cc1 (racemic) [Example 1, 2-cyclopropyl-1-[(4-fluorophenyl)sulfonyl]-N-{[3-fluoro-5-(trifluoromethyl)pyridin-2-yl]methyl}-1,2,2′,3′,5′,6′-hexahydrospiro[indole-3,4′-thiopyran]-5-carboxamide 1′,1′-dioxide]",0.42 µM
3,"O=C(NCc1ncc(C(F)(F)F)cc1Cl)c1ccc2c(c1)C1(CCS(=O)(=O)CC1)C(C1CC1)N2S(=O)(=O)c1ccc(F)cc1 (racemic) [Example 3, N-{[3-chloro-5-(trifluoromethyl)pyridin-2-yl]methyl}-2-cyclopropyl-1-[(4-fluorophenyl)sulfonyl]-1,2,2′,3′,5′,6′-hexahydrospiro[indole-3,4′-thiopyran]-5-carboxamide 1′,1′-dioxide]",0.053 µM
4,"O=C(NCc1ncc(Cl)cc1C(F)(F)F)c1ccc2c(c1)C1(CCS(=O)(=O)CC1)C(C1CC1)N2S(=O)(=O)c1ccc(F)cc1 (racemic) [Example 4, N-{[5-chloro-3-(trifluoromethyl)pyridin-2-yl]methyl}-2-cyclopropyl-1-[(4-fluorophenyl)sulfonyl]-1,2,2′,3′,5′,6′-hexahydrospiro[indole-3,4′-thiopyran]-5-carboxamide 1′,1′-dioxide]",0.069 µM
5,"Cc1cnc(CNC(=O)c2ccc3c(c2)C2(CCS(=O)(=O)CC2)C(C2CC2)N3S(=O)(=O)c2ccc(F)cc2)c(C(F)(F)F)c1 (racemic) [Example 5, 2-cyclopropyl-1-[(4-fluorophenyl)sulfonyl]-N-{[5-methyl-3-(trifluoromethyl)pyridin-2-yl]methyl}-1,2,2′,3′,5′,6′-hexahydrospiro[indole-3,4′-thiopyran]-5-carboxamide 1′,1′-dioxide]",0.864 µM
6,"COc1cccc(S(=O)(=O)N2c3ccc(C(=O)NCc4ncc(C(F)(F)F)cc4F)cc3C3(CCS(=O)(=O)CC3)C2C2CC2)c1 (racemic) [Example 6, 2-cyclopropyl-N-{[3-fluoro-5-(trifluoromethyl)pyridin-2-yl]methyl}-1-[(3-methoxyphenyl)sulfonyl]-1,2,2′,3′,5′,6′-hexahydrospiro[indole-3,4′-thiopyran]-5-carboxamide 1′,1′-dioxide]",0.231 µM
7,"N#Cc1ccc(S(=O)(=O)N2c3ccc(C(=O)NCc4ncc(C(F)(F)F)cc4F)cc3C3(CCS(=O)(=O)CC3)C2C2CC2)cc1 (racemic) [Example 7, 1-[(4-cyanophenyl)sulfonyl]-2-cyclopropyl-N-{[3-fluoro-5-(trifluoromethyl)pyridin-2-yl]methyl}-1,2,2′,3′,5′,6′-hexahydrospiro[indole-3,4′-thiopyran]-5-carboxamide 1′,1′-dioxide]",0.069 µM
8,"N#Cc1cccc(S(=O)(=O)N2c3ccc(C(=O)NCc4ncc(C(F)(F)F)cc4F)cc3C3(CCS(=O)(=O)CC3)C2C2CC2)c1 (racemic) [Example 9, 1-[(3-cyanophenyl)sulfonyl]-2-cyclopropyl-N-{[3-fluoro-5-(trifluoromethyl)pyridin-2-yl]methyl}-1,2,2′,3′,5′,6′-hexahydrospiro[indole-3,4′-thiopyran]-5-carboxamide 1′,1′-dioxide]",0.311 µM
9,"N#Cc1cccc(S(=O)(=O)N2c3ccc(C(=O)NCc4ncc(C(F)(F)F)cc4Cl)cc3C3(CCS(=O)(=O)CC3)C2C2CC2)c1 (racemic) [Example 10, N-{[3-chloro-5-(trifluoromethyl)pyridin-2-yl]methyl}-1-[(3-cyanophenyl)sulfonyl]-2-cyclopropyl-1,2,2′,3′,5′,6′-hexahydrospiro[indole-3,4′-thiopyran]-5-carboxamide 1′,1′-dioxide]",0.029 µM
